Molecules are shown by their SMILES.

Take `Cc1cc(N(CCO)CCC#N)ccc1/N=N/c1ccc([N+](=O)[O-])cc1`: the logP stood at 2.97.
To `O=C1c2ccccc2C(=O)C1c1nc2ccccc2cc1O` belongs 2.49.
In turn, `CNc1ccc(NCCO)c2c1C(=O)c1ccccc1C2=O` had a logP of 1.94.
For `Clc1ccc(/N=N/c2ccccc2)cc1`, the logP amounted to 4.56.
To `CN(CCO)c1ccc(/N=N/c2c(Cl)cc([N+](=O)[O-])cc2Cl)cc1` belongs 4.34; to `O=C1c2ccccc2C(=O)c2c(NCCO)cccc21`, 2.11.
Then `O=[N+]([O-])c1ccc(/N=N/c2ccc(N(CCO)CCO)cc2Cl)cc1`, with 2.93; and `O=C1C(c2[nH]c3c(Br)cc(Br)cc3c2O)=Nc2c(Br)cc(Br)cc21`, with 6.66.
To `O=c1[nH]c2ccccc2c(O)c1/N=N/c1ccccc1` belongs 4.2; to `O=C1c2ccccc2C(=O)c2c(O)ccc(O)c21`, 2.34.
For `Oc1ccc(/N=N/c2ccccc2)cc1`, the logP is 3.18.
Then `O=C1c2ccccc2C(=O)c2c(NCCO)ccc(NCCO)c21`, with 1.17; and `CNc1ccc(O)c2c1C(=O)c1c(O)ccc(NC)c1C2=O`, with 1.61.
To `Cc1cc(N(CCO)CCO)ccc1/N=N/c1ccccc1` belongs 2.7; to `OCCN(CCO)c1ccc(/N=N/c2ccccc2)cc1`, 2.31.
To `CCN(CCO)c1ccc(/N=N/c2ccc([N+](=O)[O-])cc2[N+](=O)[O-])cc1` belongs 3.11; to `CN(C)c1ccc(/N=N/c2ccccc2)cc1`, 4.05; to `O=[N+]([O-])c1ccc(/N=N/c2ccc(N(CCO)CCO)cc2)c([N+](=O)[O-])c1`, 1.79.
Compound `COc1cc([N+](=O)[O-])ccc1/N=N/c1ccc(N(CCO)CCO)cc1` yielded a logP of 2.27.
Then `Nc1ccc(/N=N/c2ccc([N+](=O)[O-])cc2)cc1`, with 2.37.
Then `Cc1ccc2c(c1N)C(=O)c1ccccc1C2=O`, with 2.8.
To `CC(=O)Nc1ccc(/N=N/c2cc(C)ccc2O)cc1` belongs 2.85.
In turn, `CCN(CCO)c1ccc(/N=N/c2ccc([N+](=O)[O-])cc2Cl)cc1` came in with a logP of 4.08.
To `Cc1cc(N(CCO)CCO)ccc1/N=N/c1ccc([N+](=O)[O-])cc1` belongs 2.7; to `Nc1c(Oc2ccccc2)cc(O)c2c1C(=O)c1ccccc1C2=O`, 4.68.
To `O=[N+]([O-])c1ccc(/N=N/c2ccc(Nc3ccccc3)cc2)cc1` belongs 5.07; to `Nc1ccc(N=Nc2ccccc2)cc1`, 2.62; to `CCN(CC)c1ccc(/N=N/c2ccc([N+](=O)[O-])cc2)cc1`, 4.69.
Then `CCN(CCO)c1ccc(/N=N/c2ccc([N+](=O)[O-])cc2)cc1`, with 3.37.
`c1ccc2oc(-c3ccc(-c4nc5ccccc5o4)s3)nc2c1` yielded a logP of 5.97.
Then `O=[N+]([O-])c1ccc(Nc2ccc(O)cc2)c([N+](=O)[O-])c1`, with 3.88.
`O=C1c2ccccc2C(=O)c2c1ccc(O)c2O` showed a logP of 2.34.
`O=[N+]([O-])c1ccc(Nc2ccccc2)c([N+](=O)[O-])c1`: the logP was determined as 4.55.
To `Nc1ccc(Nc2ccc([N+](=O)[O-])cc2[N+](=O)[O-])cc1` belongs 3.32; to `CNc1ccc(NC)c2c1C(=O)c1ccccc1C2=O`, 2.7.
Then `Cc1cc(N(CCO)CCO)ccc1/N=N/c1c(Cl)cc([N+](=O)[O-])cc1[N+](=O)[O-]`, with 3.15; and `O=C1c2ccc(O)c(O)c2C(=O)c2c(O)ccc(O)c21`, with 2.01.
Then `COc1cc(N)c2c(c1N)C(=O)c1ccccc1C2=O`, with 1.29; and `Nc1ccc(O)c2c1C(=O)c1ccccc1C2=O`, with 1.8; and `CN(C)c1ccc(/N=N/c2ccc([N+](=O)[O-])cc2)cc1`, with 3.79.
In turn, `Cc1cc(N(CCO)CCO)ccc1/N=N/c1ccc([N+](=O)[O-])cc1Cl` had a lipophilicity (logP) of 3.41.
To `O=[N+]([O-])c1ccc(/N=N/c2ccccc2)cc1` belongs 3.59; to `Cc1cc(N(CCO)CCO)ccc1/N=N/c1ccc([N+](=O)[O-])cc1[N+](=O)[O-]`, 2.44.
To `O=C1C(c2[nH]c3ccccc3c2O)=Nc2ccccc21` belongs 2.63; to `Cc1cc(N(CCO)CCO)ccc1/N=N/c1c(Cl)cc([N+](=O)[O-])cc1Cl`, 4.12.
Turning to `O=[N+]([O-])c1ccc(/N=N/c2ccc(N(CCO)CCO)cc2)cc1`, the logP came to 2.05.
Then `CCOc1cc(/N=N/c2c(Br)cc([N+](=O)[O-])cc2[N+](=O)[O-])c(NC(C)=O)cc1N(CCOC(C)=O)CCOC(C)=O`, with 3.56; and `O=C1c2ccccc2C(=O)c2c(O)c(O)cc(O)c21`, with 1.84; and `Cc1cc(Cl)cc2c1C(=O)/C(=C1\Sc3cc(Cl)cc(C)c3C1=O)S2`, with 6.02.
Then `CNc1cccc2c1C(=O)c1ccccc1C2=O`, with 2.87.

One may read the logP as a log measure of how a compound divides between an organic and an aqueous phase. Read a high logP as higher lipophilicity.

Source of the values: the SangsterLogP compilation.
